For one molecule, IC50 results are on record in patent publication US9034909B2, “Use of organic compound for the treatment of Noonan Syndrome” (Novartis AG, priority 2011, dated 2015).

As a reminder, the IC50 is the concentration needed to halve the response being measured.

The target in the experiment is MEK1 (Homo sapiens, UniProt Q02750). Put plainly: isolated enzyme assay, MEK1 inhibition. It counts as biochemical. Particulars: read-out: 50% inhibition (IC50) value. The source says:
The compound of Formula (I) is 6-(4-bromo-2-fluorophenylamino)-7-fluoro-3-methyl-3H-benzoimidazole-5-carboxylic acid (2-hydroxyethoxy)-amide (COMPOUND A). The compound of Formula (I) is described in PCT Application No. WO 03/077914, which is hereby incorporated by reference in its entirety hereto, and methods for its preparation have been described, for example, in Example 18 therein.

MEK1, sequence (Q02750 whole entry, species assumed): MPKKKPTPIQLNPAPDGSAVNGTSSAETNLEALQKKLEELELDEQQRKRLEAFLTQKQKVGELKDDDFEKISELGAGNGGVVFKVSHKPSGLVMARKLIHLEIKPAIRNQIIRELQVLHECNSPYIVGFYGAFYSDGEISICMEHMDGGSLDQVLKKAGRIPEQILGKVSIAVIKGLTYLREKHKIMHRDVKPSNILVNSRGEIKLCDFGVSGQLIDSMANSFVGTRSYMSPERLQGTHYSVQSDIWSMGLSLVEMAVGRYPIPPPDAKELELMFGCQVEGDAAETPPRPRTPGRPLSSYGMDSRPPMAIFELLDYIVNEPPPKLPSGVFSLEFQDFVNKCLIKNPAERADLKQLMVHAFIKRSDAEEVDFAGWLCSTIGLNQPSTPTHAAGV

For the molecule `Cn1cnc2c(F)c(Nc3ccc(Br)cc3F)c(C(=O)NOCCO)cc21` [COMPOUND A, 6-(4-bromo-2-fluorophenylamino)-7-fluoro-3-methyl-3H-benzoimidazole-5-carboxylic acid (2-hydroxyethoxy)-amide], the IC50 turned out to be 12 nM.
